In ChEMBL document CHEMBL4649995, “Discovery of a PCAF Bromodomain Chemical Probe” (Angew Chem Int Ed Engl, 2017):

How the values were obtained:
Conditions in all cases: Compound concentration 10.0 uM, Protein concentration 2.0 uM
[1] = molecular target: Tyrosine-protein kinase BAZ1B (Homo sapiens) (UniProt Q9UIG0)
[2] = molecular target: Transcription initiation factor TFIID subunit 1-like (Homo sapiens) (UniProt Q8IZX4)
[3] = molecular target: Protein polybromo-1 (Homo sapiens) (UniProt Q86U86)
[4] = molecular target: Bromodomain-containing protein 7 (Homo sapiens) (UniProt Q9NPI1)
[5] = molecular target: Transcription initiation factor TFIID subunit 1-like (Homo sapiens) (UniProt Q8IZX4); remark: listed apart in the source
[6] = molecular target: Histone acetyltransferase KAT2A (Homo sapiens) (UniProt Q92830)
[7] = molecular target: Histone acetyltransferase p300 (Homo sapiens) (UniProt Q09472)
[8] = molecular target: Nucleosome-remodeling factor subunit BPTF (Homo sapiens) (UniProt Q12830)
[9] = molecular target: Bromodomain-containing protein 3 (Homo sapiens) (UniProt Q15059)
[10] = molecular target: Bromodomain-containing protein 9 (Homo sapiens) (UniProt Q9H8M2)
[11] = molecular target: SWI/SNF-related matrix-associated actin-dependent regulator of chromatin subfamily A member 2 (Homo sapiens) (UniProt P51531)
[12] = molecular target: Nuclear body protein SP140 (Homo sapiens) (UniProt Q13342)
[13] = molecular target: Bromodomain-containing protein 4 (Homo sapiens) (UniProt O60885)
[14] = molecular target: SWI/SNF-related matrix-associated actin-dependent regulator of chromatin subfamily A member 4 (Homo sapiens) (UniProt P51532)
[15] = molecular target: ATPase family AAA domain-containing protein 2B (Homo sapiens) (UniProt Q9ULI0)
[16] = molecular target: Bromodomain adjacent to zinc finger domain protein 2B (Homo sapiens) (UniProt Q9UIF8)
[17] = molecular target: Bromodomain-containing protein 4 (Homo sapiens) (UniProt O60885); remark: listed apart in the source
[18] = molecular target: Nuclear body protein SP140-like protein (Homo sapiens) (UniProt Q9H930)
[19] = molecular target: Bromodomain and PHD finger-containing protein 3 (Homo sapiens) (UniProt Q9ULD4)
[20] = molecular target: Bromodomain-containing protein 2 (Homo sapiens) (UniProt P25440)
[21] = molecular target: Transcription initiation factor TFIID subunit 1 (Homo sapiens) (UniProt P21675)
[22] = molecular target: Bromodomain and WD repeat-containing protein 1 (Homo sapiens) (UniProt Q9NSI6)
[23] = molecular target: PH-interacting protein (Homo sapiens) (UniProt Q8WWQ0)
[24] = molecular target: Bromodomain adjacent to zinc finger domain protein 1A (Homo sapiens) (UniProt Q9NRL2)
[25] = molecular target: ATPase family AAA domain-containing protein 2 (Homo sapiens) (UniProt Q6PL18)
[26] = molecular target: Bromodomain-containing protein 2 (Homo sapiens) (UniProt P25440); remark: listed apart in the source
[27] = molecular target: Transcription initiation factor TFIID subunit 1 (Homo sapiens) (UniProt P21675); remark: listed apart in the source
Peregrin (Homo sapiens) [28] = molecular target: Peregrin (Homo sapiens) (UniProt P55201)
[29] = molecular target: CREB-binding protein (Homo sapiens) (UniProt Q92793)
[30] = molecular target: Chromatin remodeling regulator CECR2 (Homo sapiens) (UniProt Q9BXF3)
[31] = molecular target: Protein polybromo-1 (Homo sapiens) (UniProt Q86U86); remark: listed apart in the source
[32] = molecular target: Bromodomain-containing protein 1 (Homo sapiens) (UniProt O95696)
[33] = molecular target: Bromodomain-containing protein 3 (Homo sapiens) (UniProt Q15059); remark: listed apart in the source
[34] = molecular target: Transcription intermediary factor 1-beta (Homo sapiens) (UniProt Q13263)
[35] = molecular target: Protein polybromo-1 (Homo sapiens) (UniProt Q86U86); remark: listed apart in the source
[36] = molecular target: Transcription intermediary factor 1-alpha (Homo sapiens) (UniProt O15164)
[37] = molecular target: Transcription intermediary factor 1-alpha (Homo sapiens) (UniProt O15164); remark: listed apart in the source
[38] = molecular target: Protein polybromo-1 (Homo sapiens) (UniProt Q86U86); remark: listed apart in the source
[39] = molecular target: Bromodomain testis-specific protein (Homo sapiens) (UniProt Q58F21)
[40] = molecular target: Bromodomain and WD repeat-containing protein 3 (Homo sapiens) (UniProt Q6RI45)
[41] = molecular target: Bromodomain testis-specific protein (Homo sapiens) (UniProt Q58F21); remark: listed apart in the source
[42] = molecular target: Protein polybromo-1 (Homo sapiens) (UniProt Q86U86); remark: listed apart in the source
[43] = molecular target: Histone-lysine N-methyltransferase ASH1L (Homo sapiens) (UniProt Q9NR48)
[44] = molecular target: Histone-lysine N-methyltransferase 2A (Homo sapiens) (UniProt Q03164)
[45] = molecular target: Bromodomain adjacent to zinc finger domain protein 2A (Homo sapiens) (UniProt Q9UIF9)
[46] = molecular target: Protein polybromo-1 (Homo sapiens) (UniProt Q86U86); remark: listed apart in the source
Peregrin (Homo sapiens) [47] = molecular target: Peregrin (Homo sapiens) (UniProt P55201); remark: listed apart in the source

Sequence of Protein polybromo-1 (Homo sapiens) (Q86U86 whole entry): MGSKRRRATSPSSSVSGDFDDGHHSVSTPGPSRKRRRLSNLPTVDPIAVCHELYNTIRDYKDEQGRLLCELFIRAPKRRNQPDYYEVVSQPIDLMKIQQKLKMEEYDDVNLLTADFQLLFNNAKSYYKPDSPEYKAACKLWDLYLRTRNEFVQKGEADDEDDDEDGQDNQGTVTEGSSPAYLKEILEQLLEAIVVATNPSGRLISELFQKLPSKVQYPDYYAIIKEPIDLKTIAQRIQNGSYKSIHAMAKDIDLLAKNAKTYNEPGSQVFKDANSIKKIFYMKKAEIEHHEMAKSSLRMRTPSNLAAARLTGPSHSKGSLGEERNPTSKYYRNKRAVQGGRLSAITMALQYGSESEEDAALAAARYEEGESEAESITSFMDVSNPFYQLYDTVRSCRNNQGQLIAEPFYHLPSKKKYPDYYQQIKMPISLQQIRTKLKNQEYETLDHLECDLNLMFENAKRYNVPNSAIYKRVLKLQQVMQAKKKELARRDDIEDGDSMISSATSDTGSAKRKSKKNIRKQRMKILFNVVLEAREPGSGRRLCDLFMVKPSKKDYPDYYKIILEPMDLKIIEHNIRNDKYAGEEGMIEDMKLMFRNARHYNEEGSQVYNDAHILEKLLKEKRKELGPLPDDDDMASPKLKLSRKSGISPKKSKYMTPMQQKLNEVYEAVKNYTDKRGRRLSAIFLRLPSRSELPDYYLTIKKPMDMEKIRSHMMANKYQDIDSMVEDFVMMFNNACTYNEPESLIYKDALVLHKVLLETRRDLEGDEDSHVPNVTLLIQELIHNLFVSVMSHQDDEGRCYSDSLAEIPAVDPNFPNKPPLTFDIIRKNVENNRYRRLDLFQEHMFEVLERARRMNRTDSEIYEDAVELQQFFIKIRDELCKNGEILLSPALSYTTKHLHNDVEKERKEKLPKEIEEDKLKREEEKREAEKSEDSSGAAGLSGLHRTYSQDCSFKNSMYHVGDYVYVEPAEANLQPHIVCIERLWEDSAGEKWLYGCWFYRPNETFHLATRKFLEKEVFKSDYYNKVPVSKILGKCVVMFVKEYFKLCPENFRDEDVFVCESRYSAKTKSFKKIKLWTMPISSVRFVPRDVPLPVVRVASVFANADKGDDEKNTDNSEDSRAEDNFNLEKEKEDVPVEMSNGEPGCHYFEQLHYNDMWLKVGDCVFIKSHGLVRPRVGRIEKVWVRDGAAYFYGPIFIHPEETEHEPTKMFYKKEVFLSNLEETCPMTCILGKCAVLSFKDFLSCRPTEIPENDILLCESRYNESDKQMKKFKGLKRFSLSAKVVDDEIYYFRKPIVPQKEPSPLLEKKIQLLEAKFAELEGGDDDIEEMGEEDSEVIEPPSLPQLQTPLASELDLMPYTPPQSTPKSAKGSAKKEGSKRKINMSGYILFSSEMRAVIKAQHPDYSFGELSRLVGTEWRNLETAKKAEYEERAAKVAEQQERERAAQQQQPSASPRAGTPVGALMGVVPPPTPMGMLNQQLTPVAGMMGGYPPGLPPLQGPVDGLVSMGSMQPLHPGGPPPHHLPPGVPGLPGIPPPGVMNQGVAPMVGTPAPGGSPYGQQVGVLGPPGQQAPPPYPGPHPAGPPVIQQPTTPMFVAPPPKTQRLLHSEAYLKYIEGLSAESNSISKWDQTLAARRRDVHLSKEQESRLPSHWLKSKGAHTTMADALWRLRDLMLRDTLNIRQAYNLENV
Sequence of Transcription initiation factor TFIID subunit 1-like (Homo sapiens) (Q8IZX4 whole entry): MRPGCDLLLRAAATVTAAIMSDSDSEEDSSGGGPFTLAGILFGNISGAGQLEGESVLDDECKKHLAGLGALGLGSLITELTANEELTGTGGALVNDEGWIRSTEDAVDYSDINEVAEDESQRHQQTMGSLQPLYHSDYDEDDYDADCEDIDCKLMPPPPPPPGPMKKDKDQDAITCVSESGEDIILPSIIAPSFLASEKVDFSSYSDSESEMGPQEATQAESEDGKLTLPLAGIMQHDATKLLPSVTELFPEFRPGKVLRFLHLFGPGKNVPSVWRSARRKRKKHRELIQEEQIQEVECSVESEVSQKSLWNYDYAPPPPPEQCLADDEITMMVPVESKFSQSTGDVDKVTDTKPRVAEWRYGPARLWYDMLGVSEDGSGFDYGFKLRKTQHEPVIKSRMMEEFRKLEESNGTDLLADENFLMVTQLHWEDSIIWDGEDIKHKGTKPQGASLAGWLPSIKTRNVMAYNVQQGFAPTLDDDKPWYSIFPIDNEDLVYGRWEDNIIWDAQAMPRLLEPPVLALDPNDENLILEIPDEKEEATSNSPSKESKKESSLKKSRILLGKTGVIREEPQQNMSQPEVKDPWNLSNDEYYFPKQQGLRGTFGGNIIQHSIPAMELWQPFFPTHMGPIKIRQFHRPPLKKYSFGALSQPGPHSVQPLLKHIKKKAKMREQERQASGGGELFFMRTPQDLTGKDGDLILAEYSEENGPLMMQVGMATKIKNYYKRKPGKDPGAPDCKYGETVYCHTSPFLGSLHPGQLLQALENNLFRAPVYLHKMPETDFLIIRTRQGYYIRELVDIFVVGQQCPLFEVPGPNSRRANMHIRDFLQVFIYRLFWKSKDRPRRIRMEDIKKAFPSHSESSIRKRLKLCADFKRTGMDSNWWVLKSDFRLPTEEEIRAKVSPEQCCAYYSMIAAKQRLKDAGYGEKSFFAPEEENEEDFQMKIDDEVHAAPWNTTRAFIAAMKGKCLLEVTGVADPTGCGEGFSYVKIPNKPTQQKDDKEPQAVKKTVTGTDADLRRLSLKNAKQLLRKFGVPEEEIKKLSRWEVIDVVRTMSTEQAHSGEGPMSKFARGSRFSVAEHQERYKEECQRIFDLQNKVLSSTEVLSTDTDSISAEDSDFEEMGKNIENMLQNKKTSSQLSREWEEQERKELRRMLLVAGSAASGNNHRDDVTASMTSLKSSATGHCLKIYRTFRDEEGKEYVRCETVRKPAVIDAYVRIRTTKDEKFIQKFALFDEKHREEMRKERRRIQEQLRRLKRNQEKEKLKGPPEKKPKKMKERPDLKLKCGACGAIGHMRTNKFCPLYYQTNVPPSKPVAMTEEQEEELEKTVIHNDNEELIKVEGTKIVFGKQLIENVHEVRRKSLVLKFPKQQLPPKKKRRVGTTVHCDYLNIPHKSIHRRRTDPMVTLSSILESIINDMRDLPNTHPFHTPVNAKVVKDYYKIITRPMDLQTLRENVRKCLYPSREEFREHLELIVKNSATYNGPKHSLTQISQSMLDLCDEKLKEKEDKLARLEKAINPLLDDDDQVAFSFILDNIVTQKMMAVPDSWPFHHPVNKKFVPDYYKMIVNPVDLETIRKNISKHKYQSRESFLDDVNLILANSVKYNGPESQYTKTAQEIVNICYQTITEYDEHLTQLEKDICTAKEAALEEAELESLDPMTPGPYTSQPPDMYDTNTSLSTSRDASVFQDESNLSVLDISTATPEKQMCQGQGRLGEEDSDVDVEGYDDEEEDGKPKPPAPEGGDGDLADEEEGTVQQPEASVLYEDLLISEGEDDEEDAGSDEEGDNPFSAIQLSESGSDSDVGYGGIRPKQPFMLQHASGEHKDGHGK
Sequence of Peregrin (Homo sapiens) (P55201 whole entry): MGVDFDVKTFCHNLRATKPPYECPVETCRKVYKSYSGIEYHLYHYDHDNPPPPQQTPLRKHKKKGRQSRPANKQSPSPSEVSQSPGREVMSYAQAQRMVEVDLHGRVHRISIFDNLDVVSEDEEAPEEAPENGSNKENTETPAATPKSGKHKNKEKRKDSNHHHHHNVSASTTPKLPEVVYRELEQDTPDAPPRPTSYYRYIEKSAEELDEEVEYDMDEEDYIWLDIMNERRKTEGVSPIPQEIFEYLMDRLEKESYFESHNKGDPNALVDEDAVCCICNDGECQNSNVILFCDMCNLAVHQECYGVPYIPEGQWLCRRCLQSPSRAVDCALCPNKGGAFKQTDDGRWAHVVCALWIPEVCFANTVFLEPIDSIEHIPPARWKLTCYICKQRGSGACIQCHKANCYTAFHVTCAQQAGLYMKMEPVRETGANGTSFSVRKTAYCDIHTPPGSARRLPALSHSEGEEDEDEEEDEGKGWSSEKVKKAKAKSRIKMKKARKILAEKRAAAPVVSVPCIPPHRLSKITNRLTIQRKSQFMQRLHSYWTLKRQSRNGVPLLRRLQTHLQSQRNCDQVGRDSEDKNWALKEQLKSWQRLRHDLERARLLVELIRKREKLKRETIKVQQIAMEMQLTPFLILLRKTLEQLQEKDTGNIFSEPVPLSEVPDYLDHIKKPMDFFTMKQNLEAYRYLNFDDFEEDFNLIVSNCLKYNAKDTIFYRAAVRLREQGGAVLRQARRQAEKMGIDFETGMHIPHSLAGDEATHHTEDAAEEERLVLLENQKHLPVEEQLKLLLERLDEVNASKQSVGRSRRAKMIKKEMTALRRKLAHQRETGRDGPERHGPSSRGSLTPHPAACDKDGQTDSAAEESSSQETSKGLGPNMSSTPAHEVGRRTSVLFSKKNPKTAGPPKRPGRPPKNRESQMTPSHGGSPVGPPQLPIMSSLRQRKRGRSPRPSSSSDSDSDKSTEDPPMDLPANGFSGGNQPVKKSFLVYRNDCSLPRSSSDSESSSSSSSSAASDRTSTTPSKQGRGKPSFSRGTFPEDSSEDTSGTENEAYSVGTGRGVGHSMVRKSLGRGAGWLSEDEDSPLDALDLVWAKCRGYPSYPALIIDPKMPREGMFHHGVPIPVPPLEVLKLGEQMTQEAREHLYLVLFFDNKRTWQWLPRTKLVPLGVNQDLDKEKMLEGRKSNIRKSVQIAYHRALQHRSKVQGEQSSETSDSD

Structure (SMILES): Cc1nnc2c3ccccc3c(N[C@@H](C)[C@H](c3ccccc3)N(C)C)nn12
- ΔTm [1]: 0.72 °C
- ΔTm [2]: 0.33 °C
- ΔTm [3]: 0.43 °C
- ΔTm [4]: -0.07 °C
- ΔTm [5]: 0.67 °C
- ΔTm [6]: 3.75 °C
- ΔTm [7]: 0.86 °C
- ΔTm [8]: 0.08 °C
- ΔTm [9]: 0.13 °C
- ΔTm [10]: 0.56 °C
- ΔTm [11]: 0.51 °C
- ΔTm [12]: 0.09 °C
- ΔTm [13]: 0.1 °C
- ΔTm [14]: 0.42 °C
- ΔTm [15]: 0.61 °C
- ΔTm [16]: 0.67 °C
- ΔTm [17]: 0.39 °C
- ΔTm [18]: 0.94 °C
- ΔTm [19]: 0.78 °C
- ΔTm [20]: 0.23 °C
- ΔTm [21]: 0.5 °C
- ΔTm [22]: 2 °C
- ΔTm [23]: -0.82 °C
- ΔTm [24]: 1.31 °C
- ΔTm [25]: 1.18 °C
- ΔTm [26]: -0.06 °C
- ΔTm [27]: 0.42 °C
- ΔTm (Peregrin (Homo sapiens) [28]): 1.19 °C
- ΔTm [29]: 0.95 °C
- ΔTm [30]: 0.63 °C
- ΔTm [31]: 0.75 °C
- ΔTm [32]: -0.26 °C
- ΔTm [33]: 0.26 °C
- ΔTm [34]: 0.5 °C
- ΔTm [35]: 0.26 °C
- ΔTm [36]: 0.77 °C
- ΔTm [37]: 0.69 °C
- ΔTm [38]: 0.1 °C
- ΔTm [39]: -2.19 °C
- ΔTm [40]: 2.16 °C
- ΔTm [41]: 0.72 °C
- ΔTm [42]: 0.13 °C
- ΔTm [43]: 0.62 °C
- ΔTm [44]: 1.14 °C
- ΔTm [45]: 0.1 °C
- ΔTm [46]: 0.65 °C
- ΔTm (Peregrin (Homo sapiens) [47]): 1.03 °C
